Assay results: PubChem BioAssay (NCI)
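How tested: cells in 96-well plates exposed to compound for 48 hours at five concentrations. Here, GI50 denotes the concentration required for 50% inhibition of growth. TGI: total growth inhibition.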

Columns and labels:
Experiment in all cases: NCI tumour cell line growth inhibition, 48 h
786-0 renal = system: 786-0 renal
A498 renal = system: A498 renal
A549 NSCLC = system: A549 NSCLC
ACHN renal = system: ACHN renal
BT-549 breast = system: BT-549 breast
CAKI-1 renal = system: CAKI-1 renal
CCRF-CEM leukemia = system: CCRF-CEM leukemia
COLO 205 colon = system: COLO 205 colon
DU-145 prostate = system: DU-145 prostate
HCC-2998 colon = system: HCC-2998 colon
HCT-116 colon = system: HCT-116 colon
HCT-15 colon = system: HCT-15 colon
HL-60(TB) leukemia = system: HL-60(TB) leukemia
HOP-62 NSCLC = system: HOP-62 NSCLC
HS 578T breast = system: HS 578T breast
HT29 colon = system: HT29 colon
IGROV1 ovarian = system: IGROV1 ovarian
K-562 leukemia = system: K-562 leukemia
KM12 colon = system: KM12 colon
LOX IMVI melanoma = system: LOX IMVI melanoma
M14 melanoma = system: M14 melanoma
MALME-3M melanoma = system: MALME-3M melanoma
MCF7 breast = system: MCF7 breast
MDA-MB-231 breast = system: MDA-MB-231 breast
MDA-MB-435 = system: MDA-MB-435
MOLT-4 leukemia = system: MOLT-4 leukemia
NCI-H226 lung = system: NCI-H226 lung
NCI-H23 lung = system: NCI-H23 lung
NCI-H460 lung = system: NCI-H460 lung
NCI-H522 lung = system: NCI-H522 lung
NCI/ADR-RES ovarian = system: NCI/ADR-RES ovarian
OVCAR-3 ovarian = system: OVCAR-3 ovarian
OVCAR-4 ovarian = system: OVCAR-4 ovarian
OVCAR-5 ovarian = system: OVCAR-5 ovarian
OVCAR-8 ovarian = system: OVCAR-8 ovarian
PC-3 prostate = system: PC-3 prostate
RPMI-8226 leukemia = system: RPMI-8226 leukemia
RXF 393 renal = system: RXF 393 renal
SF-268 CNS = system: SF-268 CNS
SF-295 CNS = system: SF-295 CNS
SF-539 CNS = system: SF-539 CNS
SK-MEL-2 melanoma = system: SK-MEL-2 melanoma
SK-MEL-28 melanoma = system: SK-MEL-28 melanoma
SK-MEL-5 melanoma = system: SK-MEL-5 melanoma
SK-OV-3 ovarian = system: SK-OV-3 ovarian
SN12C renal = system: SN12C renal
SNB-19 CNS = system: SNB-19 CNS
SNB-75 CNS = system: SNB-75 CNS
SR leukemia = system: SR leukemia
SW-620 colon = system: SW-620 colon
T-47D breast = system: T-47D breast
TK-10 renal = system: TK-10 renal
U251 CNS = system: U251 CNS
UACC-257 melanoma = system: UACC-257 melanoma
UACC-62 melanoma = system: UACC-62 melanoma
UO-31 renal = system: UO-31 renal

## Cn1cc(C2=C(c3cn(CCCO)c4ccccc34)C(=O)NC2=O)c2ccccc21
786-0 renal
  GI50: 7.03 µM
  TGI: > 22.8 µM
A498 renal
  GI50: 5.45 µM
  TGI: 13.9 µM
A549 NSCLC
  GI50: 5.68 µM
  TGI: 17.5 µM
ACHN renal
  GI50: 4.99 µM
  TGI: 19.8 µM
BT-549 breast
  GI50: 3.76 µM
  TGI: 11.5 µM
CAKI-1 renal
  GI50: 3.93 µM
  TGI: 16.9 µM
CCRF-CEM leukemia
  GI50: 3.01 µM
  TGI: 18.2 µM
COLO 205 colon
  GI50: 5.39 µM
  TGI: 16 µM
DU-145 prostate
  GI50: 6.97 µM
  TGI: > 22.5 µM
HCC-2998 colon
  GI50: 7.83 µM
  TGI: > 25 µM
HCT-116 colon
  GI50: 4.62 µM
  TGI: > 17.7 µM
HCT-15 colon
  GI50: 3.33 µM
  TGI: > 25 µM
HL-60(TB) leukemia
  GI50: 6.1 µM
  TGI: 15.3 µM
HOP-62 NSCLC
  GI50: 7 µM
  TGI: 19.5 µM
HS 578T breast
  GI50: 5.35 µM
  TGI: 17.3 µM
HT29 colon
  GI50: 5.4 µM
  TGI: > 19.3 µM
IGROV1 ovarian
  GI50: 6.04 µM
  TGI: 16.6 µM
K-562 leukemia
  GI50: 5.61 µM
  TGI: > 25 µM
KM12 colon
  GI50: 1.77 µM
  TGI: 16.8 µM
LOX IMVI melanoma
  GI50: 6.12 µM
  TGI: > 21.4 µM
M14 melanoma
  GI50: 7.29 µM
  TGI: > 25 µM
MALME-3M melanoma
  GI50: 8.52 µM
  TGI: 21.3 µM
MCF7 breast
  GI50: 2.66 µM
  TGI: 17.4 µM
MDA-MB-231 breast
  GI50: 9.38 µM
  TGI: > 25 µM
MDA-MB-435
  GI50: 2.34 µM
  TGI: > 25 µM
MOLT-4 leukemia
  GI50: 6.05 µM
  TGI: > 20.7 µM
NCI-H226 lung
  GI50: 5.05 µM
  TGI: 19.1 µM
NCI-H23 lung
  GI50: 5.37 µM
  TGI: 18 µM
NCI-H460 lung
  GI50: 4.9 µM
  TGI: 12.5 µM
NCI-H522 lung
  GI50: 3.47 µM
  TGI: 13.2 µM
NCI/ADR-RES ovarian
  GI50: 7.23 µM
  TGI: > 22.8 µM
OVCAR-3 ovarian
  GI50: 6 µM
  TGI: > 19.5 µM
OVCAR-4 ovarian
  GI50: 4.63 µM
  TGI: > 20.7 µM
OVCAR-5 ovarian
  GI50: 11.4 µM
  TGI: > 25 µM
OVCAR-8 ovarian
  GI50: 6.4 µM
  TGI: > 21.1 µM
PC-3 prostate
  GI50: 6.8 µM
  TGI: 24.6 µM
RPMI-8226 leukemia
  GI50: 5.97 µM
  TGI: 15 µM
RXF 393 renal
  GI50: 3.87 µM
  TGI: 9.56 µM
SF-268 CNS
  GI50: 6.11 µM
  TGI: 17.6 µM
SF-295 CNS
  GI50: 5.11 µM
  TGI: > 17 µM
SF-539 CNS
  GI50: 4.57 µM
  TGI: 11.4 µM
SK-MEL-2 melanoma
  GI50: 1.79 µM
  TGI: 4.72 µM
SK-MEL-28 melanoma
  GI50: 6.49 µM
  TGI: 18.8 µM
SK-MEL-5 melanoma
  GI50: 4.2 µM
  TGI: 10.8 µM
SK-OV-3 ovarian
  GI50: 4.29 µM
  TGI: > 22.1 µM
SN12C renal
  GI50: 5.25 µM
  TGI: > 25 µM
SNB-19 CNS
  GI50: 9.36 µM
  TGI: > 25 µM
SNB-75 CNS
  GI50: 3.11 µM
  TGI: 12.3 µM
SR leukemia
  GI50: 2.71 µM
  TGI: > 19.1 µM
SW-620 colon
  GI50: 7.11 µM
  TGI: > 25 µM
T-47D breast
  GI50: 4.94 µM
  TGI: 18.6 µM
TK-10 renal
  GI50: 3.96 µM
  TGI: 13.3 µM
U251 CNS
  GI50: 6.15 µM
  TGI: 19.3 µM
UACC-257 melanoma
  GI50: 8.15 µM
  TGI: 24.7 µM
UACC-62 melanoma
  GI50: 5.56 µM
  TGI: 12.3 µM
UO-31 renal
  GI50: 4.04 µM
  TGI: 14 µM
